Results on two compounds are retold here after US5294716A, “Chemical process for making angiotesin II antagonist compounds” (Imperial Chemical Industries PLC, priority 1991, dated 1994).

In assay [1] the test system is angiotensin II-induced pressor responses. The assay can be described thus: Test C: in vivo antagonism of angiotensin II-induced pressor responses in terminally-anaesthetised or conscious rats. Conditions: Rattus norvegicus, iv, i.v. administration. From the text: The antagonism of one or more of the physiological actions of AII and, in particular, the antagonism of the interaction of AII with the receptors which mediate its effects on a target tissue, may be assessed using one or more of the following, routine laboratory procedures: Test C: This in vivo test involves using terminally-anaesthetised or conscious rats in which an arterial catheter has been implanted under anaesthesia for the measurement of changes in blood pressure. The AII antagonistic effects of the test compound following oral or parenteral administration, are assessed against angiotensin II-induced pressor responses. To ensure that the effect is specific, the effect of the test compound on vasopressin-induced pressor responses may also be determined in the same preparation.

Assay [2] has as its target T1, AII receptors (guinea pig adrenal gland cell surface membranes) (Cavia porcellus, UniProt Q9WV26).
T1 construct: from tissue; host or cells: guinea pig adrenal gland, cell surface membrane fraction
T1 sequence (Q9WV26 1-359): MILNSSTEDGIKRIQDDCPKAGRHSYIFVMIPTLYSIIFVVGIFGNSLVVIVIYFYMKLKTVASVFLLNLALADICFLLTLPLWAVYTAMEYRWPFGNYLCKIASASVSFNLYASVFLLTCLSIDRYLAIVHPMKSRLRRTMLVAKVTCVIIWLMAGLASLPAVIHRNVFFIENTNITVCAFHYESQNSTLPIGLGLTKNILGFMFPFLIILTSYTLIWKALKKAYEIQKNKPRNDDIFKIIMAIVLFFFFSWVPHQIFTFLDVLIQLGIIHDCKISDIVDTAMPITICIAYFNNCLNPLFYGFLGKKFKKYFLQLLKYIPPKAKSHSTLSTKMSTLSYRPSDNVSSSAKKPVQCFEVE
Nature of the assay: Test A: displacement of radiolabelled AII binding to cell surface membrane fraction (guinea pig adrenal gland). As to the method:
The antagonism of one or more of the physiological actions of AII and, in particular, the antagonism of the interaction of AII with the receptors which mediate its effects on a target tissue, may be assessed using one or more of the following, routine laboratory procedures: Test A: This in vitro procedure involves the incubation of the test compound initially at a concentration of 100 micromolar (or less) in a buffered mixture containing fixed concentrations of radiolabelled AII and a cell surface membrane fraction prepared from a suitable angiotensin target tissue. In this test, the source of cell surface membranes is the guinea pig adrenal gland which is well known to respond to AII. Interaction of the radiolabelled AII with its receptors (assessed as radiolabel bound to the particulate membrane fraction following removal of unbound radiolabel by a rapid filtration procedure such as is standard in such studies) is antagonized by compounds which also bind to the membrane receptor sites and the degree of antagonism (observed in the test as displacement of membrane-bound radioactivity) is determined readily by comparing the receptor-bound radioactivity in the presence of the test compound at the specified test concentration with a control value determined in the absence of the test compound. […]

Structures can show the parent of a compound that is named as a salt. Where two headings read alike, the source gives them in different places.

The ED50 is the midpoint of the dose-response relation. Lower therefore signals greater potency. `Cc1cc(OCc2ccc(-c3ccccc3-c3nnn[nH]3)cc2)c2ccccc2n1.Cl` [2-methyl-4-[(2'-(1H-tetrazol-5-yl)biphenyl-4-yl)methoxy]quinoline hydrochloride] returned an ED50 in assay [1] of 0.5 mg/kg. The IC50 in assay [2] (average, read-out: IC50 (concentration for 50% displacement of radiolabelled AII binding), average) is 17 nM.
`Cc1cc(OCc2ccc(-c3ccccc3-c3nn[nH]n3)cc2)c2c(n1)CCCC2` [2-methyl-5,6,7,8-tetrahydro-4-[(2'-(1H-tetrazol-5-yl)methoxy]quinoline hydrochloride] returned a median effective dose (ED50) in assay [1] of 0.28 mg/kg. Moreover, the IC50 in assay [2] (read-out: IC50 (concentration for 50% displacement of radiolabelled AII binding)) is 30 nM.
